These are literature values, as cited in patent US20190201417A1, “TOPICAL STEROID THERAPY FOR MUCOSAL AND DERMATOLOGICAL INFLAMMATORY DISEASE” (CINRX PHARMA, LLC, priority 2016, published 2019).

Like-named read-outs stand apart in the source and are kept apart here.

The subject of one data set is Caco-2 cell monolayers. Particulars: coadministration with chitosan glutamate.
For data set [1] the following is noted: rats, nasal application with chitosan glutamate.
For data set [2] the following is noted: sheep, nasal application with chitosan glutamate.

On to “9-desglycinamide-8-arginine vasopressin [DGAVP]”, for which the “transport of the peptide drug” value with Caco-2 cell monolayers was “increased markedly”.
For `CCNC(=O)[C@@H]1CCCN1C(=O)[C@H](CCCNC(=N)N)NC(=O)[C@H](CC(C)C)NC(=O)[C@@H](COC(C)(C)C)NC(=O)[C@H](Cc1ccc(O)cc1)NC(=O)[C@H](CO)NC(=O)[C@H](Cc1c[nH]c2ccccc12)NC(=O)[C@H](Cc1cnc[nH]1)NC(=O)[C@@H]1CCC(=O)N1` [buserelin], the “absolute bioavailability of buserelin” value was 5.1±1.5% (intraduodenal application with chitosan hydrochloride in a gel formulation) and 0.1±0.1% (intraduodenal application, baseline without chitosan hydrochloride).
insulin: the blood glucose levels entry in data set [1] and in data set [2] was “significant reduction” in each case.
